Key:
Type in all cases: cell-based
[1] = target: T1, 17β-hydroxysteroid dehydrogenase type 2 (17β-HSD type 2) (Homo sapiens, UniProt P37059); assay: Inhibition of 17β-HSD type 2 in MCF-7 cells stably expressing the isoenzyme (tritium labeled estradiol conversion, HPLC); settings: MCF-7 cells expressing 17β-HSD type 2, 2 nM tritium labeled estradiol; for inhibition at 1 µM / inhibition at 10 µM: MCF7; for inhibition at 1 µM / % Inhibition HSD2 1 μM: 1 μM test compound; for inhibition at 1 µM: read-out: % Inhibition HSD2 1 μM; for inhibition at 10 µM / % Inhibition HSD2 10 μM: 10 μM test compound; for inhibition at 10 µM: read-out: % Inhibition HSD2 10 μM
T1 construct: expressed in transfected cells; host or cells: MCF-7
T1 sequence (P37059 1-387): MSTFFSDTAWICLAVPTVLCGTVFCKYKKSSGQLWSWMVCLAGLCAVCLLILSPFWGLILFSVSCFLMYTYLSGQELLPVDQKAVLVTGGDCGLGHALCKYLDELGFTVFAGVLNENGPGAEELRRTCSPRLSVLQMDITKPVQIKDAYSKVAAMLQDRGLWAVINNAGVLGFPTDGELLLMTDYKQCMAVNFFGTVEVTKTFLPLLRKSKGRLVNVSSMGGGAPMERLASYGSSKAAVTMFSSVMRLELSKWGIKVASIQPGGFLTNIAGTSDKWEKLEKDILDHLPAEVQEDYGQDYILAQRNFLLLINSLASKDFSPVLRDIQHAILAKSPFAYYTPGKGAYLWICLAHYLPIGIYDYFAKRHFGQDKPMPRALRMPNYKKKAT
Procedure, shortened: (§1)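 Each isoenzyme was stably expressed in its own MCF-7 line, and cells were incubated in growth medium with test compound and 2 nM tritiated substrate: estrone (type 1), estradiol (type 2), androstenedione (type 3). Medium was sampled after a fixed time, TCA-stopped, and analysed by HPLC-flow scintillation; inhibition versus compound-free control, two compound concentrations.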

[2] = target: T2, 17β-hydroxysteroid dehydrogenase type 1 (17β-HSD type 1) (Homo sapiens, UniProt P14061); assay: Inhibition of 17β-HSD type 1 in MCF-7 cells stably expressing the isoenzyme (tritium labeled estrone conversion, HPLC); settings: MCF-7 cells expressing 17β-HSD type 1, 2 nM tritium labeled estrone; for inhibition at 1 µM / inhibition at 10 µM: MCF7; for inhibition at 1 µM / % Inhibition HSD1 1 μM: 1 μM test compound; for inhibition at 1 µM: read-out: % Inhibition HSD1 1 μM; for inhibition at 10 µM / % Inhibition HSD1 10 μM: 10 μM test compound; for inhibition at 10 µM: read-out: % Inhibition HSD1 10 μM
T2 construct: expressed in transfected cells; host or cells: MCF-7
T2 sequence (P14061 1-328): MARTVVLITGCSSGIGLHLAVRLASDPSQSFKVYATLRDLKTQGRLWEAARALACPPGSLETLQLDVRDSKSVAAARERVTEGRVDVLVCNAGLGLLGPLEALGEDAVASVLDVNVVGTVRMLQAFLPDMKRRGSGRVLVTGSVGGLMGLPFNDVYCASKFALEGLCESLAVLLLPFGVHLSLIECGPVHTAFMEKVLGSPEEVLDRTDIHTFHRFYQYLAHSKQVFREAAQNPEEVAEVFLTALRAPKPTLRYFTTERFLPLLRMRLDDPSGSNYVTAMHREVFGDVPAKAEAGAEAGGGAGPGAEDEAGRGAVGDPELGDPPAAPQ
Procedure, shortened: as §1

[3] = target: T3, 17β-hydroxysteroid dehydrogenase type 3 (17β-HSD type 3) (Homo sapiens, UniProt P37058); assay: Inhibition of 17β-HSD type 3 in MCF-7 cells stably expressing the isoenzyme (tritium labeled androstenedione conversion, HPLC); settings: MCF-7 cells expressing 17β-HSD type 3, 2 nM tritium labeled androstenedione; for inhibition at 1 µM / inhibition at 10 µM: MCF7; for inhibition at 1 µM / % Inhibition HSD3 1 μM: 1 μM test compound; for inhibition at 1 µM: read-out: % Inhibition HSD3 1 μM; for inhibition at 10 µM / % Inhibition HSD3 10 μM: 10 μM test compound; for inhibition at 10 µM: read-out: % Inhibition HSD3 10 μM
T3 construct: expressed in transfected cells; host or cells: MCF-7
T3 sequence (P37058 1-310): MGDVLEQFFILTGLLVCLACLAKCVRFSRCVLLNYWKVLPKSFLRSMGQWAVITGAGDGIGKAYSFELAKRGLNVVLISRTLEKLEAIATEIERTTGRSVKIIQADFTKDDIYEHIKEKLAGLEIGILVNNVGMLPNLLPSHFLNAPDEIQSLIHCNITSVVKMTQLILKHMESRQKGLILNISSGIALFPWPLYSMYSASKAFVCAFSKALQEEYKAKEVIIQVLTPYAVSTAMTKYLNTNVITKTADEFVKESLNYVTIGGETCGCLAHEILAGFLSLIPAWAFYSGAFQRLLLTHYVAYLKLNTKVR
Procedure, shortened: as §1

| SMILES | inhibition at 1 µM [1] [%] | inhibition at 10 µM [1] [%] | inhibition at 1 µM [2] [%] | inhibition at 10 µM [2] [%] | inhibition at 1 µM [3] [%] | inhibition at 10 µM [3] [%] | % Inhibition HSD2 1 μM [1] [%] | % Inhibition HSD2 10 μM [1] [%] | % Inhibition HSD1 1 μM [2] [%] | % Inhibition HSD1 10 μM [2] [%] | % Inhibition HSD3 1 μM [3] [%] | % Inhibition HSD3 10 μM [3] [%] |
| --- | --- | --- | --- | --- | --- | --- | --- | --- | --- | --- | --- | --- |
| CCC(C)Cn1c(-c2cc(OC)c(OC)c(OC)c2Cl)nc2sc3c(c2c1=O)CCC(Cl)C3=O (stereo not drawn) [No. 141, 7-Chloro-2-(2-chloro-3,4,5-trimethoxyphenyl)-3-(2-methylbutyl)-6,7-dihydro-3H,5H-benzo[4,5]thieno[2,3-d]pyrimidine-4,8-dione] | 3 | 1.1 | 25 | 58.9 | 2.7 | 22.7 | – | – | – | – | – | – |
| CCC(C)Cn1c(-c2cc(OC)c(OC)c(OC)c2Cl)nc2sc3c(c2c1=O)CCC(Cl)(Cl)C3=O (stereo not drawn) [No. 142, 7,7-Dichloro-2-(2-chloro-3,4,5-trimethoxyphenyl)-3-(2-methylbutyl)-6,7-dihydro-3H,5H-benzo[4,5]thieno[2,3-d]pyrimidine-4,8-dione] | 6.2 | 10.5 | 32.8 | 52.7 | 8 | 24.1 | – | – | – | – | – | – |
| CCC(C)Cn1c(-c2cc(OC)c(OC)c(OC)c2Cl)nc2sc3c(O)cccc3c2c1=O (stereo not drawn) [No. 143, 2-(2-Chloro-3,4,5-trimethoxyphenyl)-8-hydroxy-3-(2-methylbutyl)-3H-benzo[4,5]thieno[2,3-d]pyrimidin-4-one] | 4.5 | 17.7 | 40.1 | 74.2 | 12.5 | 52.1 | – | – | – | – | – | – |
| COc1cc(-c2nc3sc4c(c3c(=O)n2Cc2cccnc2)CCCC4)cc(OC)c1OC [No. 144] | 13.6 | 31.1 | 23.5 | 33.7 | 12.7 | 19.3 | – | – | – | – | – | – |
| COc1cc(-c2nc3sc4c(c3c(=O)n2Cc2ccccc2)CCCC4O)cc(OC)c1OC (stereo not drawn) [No. 145, 3-Benzyl-8-hydroxy-2-(3,4,5-trimethoxyphenyl)-5,6,7,8-tetrahydro-3H-benzo[4,5]thieno[2,3-d]pyrimidin-4-one] | 25.9 | 25.7 | 23.6 | 21.2 | 19.2 | 21.6 | – | – | – | – | – | – |
| COc1ccc(-c2nc3sc4c(c3c(=O)n2Cc2ccccc2)CCC(Br)C4=O)cc1 (stereo not drawn) [No. 146, 3-Benzyl-7-bromo-2-p-methoxyphenyl-6,7-dihydro-3H,5H-benzo[4,5]thieno[2,3-d]pyrimidine-4,8-dione] | 14.3 | 5.1 | 7.3 | 50.9 | 14.7 | 37.9 | – | – | – | – | – | – |
| COc1ccc(-c2nc3sc4c(c3c(=O)n2Cc2ccccc2)CCC(Br)(Br)C4=O)cc1 [No. 147, 3-Benzyl-7,7-dibromo-2-p-methoxyphenyl-6,7-dihydro-3H,5H-benzo[4,5]thieno[2,3-d]pyrimidine-4,8-dione] | 0.1 | 17.2 | 11.4 | 12.5 | 10.3 | 9.1 | – | – | – | – | – | – |
| COCCn1c(-c2cccs2)nc2sc3c(O)c(Br)ccc3c2c1=O [No. 148, 7-Bromo-8-hydroxy-3-(2-methoxyethyl)-2-thiophen-2-yl-3H-benzo[4,5]thieno[2,3-d]pyrimidin-4-one] | 29.1 | 42 | 27 | 53.2 | 53.7 | 97.9 | – | – | – | – | – | – |
| O=c1c2c(nc(-c3cccs3)n1CCO)sc1c(O)c(Br)ccc12 [No. 149, 7-Bromo-8-hydroxy-3-(2-hydroxyethyl)-2-thiophen-2-yl-3H-benzo[4,5]thieno[2,3-d]pyrimidin-4-one] | 34.6 | 29.9 | 17.8 | 18.3 | 31 | 59.8 | – | – | – | – | – | – |
| COc1cc(-c2nc3sc4c(Cl)c(C=O)ccc4c3c(=O)n2Cc2ccccc2)c(Cl)c(OC)c1OC [No. 150, 3-Benzyl-8-chloro-2-(2-chloro-3,4,5-trimethoxyphenyl)-4-oxo-3,4-dihydro-benzo[4,5]thieno[2,3-d]pyrimidine-7-carbaldehyde] | 6.4 | 11.4 | 0.4 | 3.4 | -1.1 | 22 | – | – | – | – | – | – |
| O=c1c2c(nc(CCC3CCCC3)n1CCc1ccccc1)sc1c(O)cccc12 [No. 627] | – | – | – | – | – | – | 27.1 | 22.6 | 25.2 | 26.6 | 10.7 | 33.9 |
| CCCCC(CC)c1nc2sc3c(O)cccc3c2c(=O)n1CCc1ccccc1 (stereo not drawn) [No. 628] | – | – | – | – | – | – | −0.9 | 22.5 | 11.4 | 32.4 | 12.4 | 36.1 |
| COCc1nc2sc3c(O)cccc3c2c(=O)n1CCc1ccccc1 [No. 629] | – | – | – | – | – | – | 39.1 | 71.7 | 22.4 | 33.1 | 19.3 | 35.9 |
| O=c1c2c(nc(-c3ccc(F)cc3F)n1CCc1ccccc1)sc1c(O)cccc12 [No. 630] | – | – | – | – | – | – | 24.7 | 19.9 | 25.1 | 21.0 | 10.9 | 35.4 |
| CCCCn1c(-c2ccccc2OC)nc2sc3c(O)cccc3c2c1=O [No. 633, 3-Butyl-8-hydroxy-2-(2-methoxy-phenyl)-3H-benzo[4,5]thieno[2,3-d]pyrimidin-4-one] | 33.2 | 64.6 | 30.6 | 60.9 | 62.3 | 91.7 | – | – | – | – | – | – |
| CCCCn1c(CCC2CCCC2)nc2sc3c(O)cccc3c2c1=O [No. 634] | – | – | – | – | – | – | 16.8 | 20.1 | 16.8 | 17.9 | 13.3 | 56.4 |
| CCCCC(CC)c1nc2sc3c(O)cccc3c2c(=O)n1CCCC (stereo not drawn) [No. 635] | – | – | – | – | – | – | 15.4 | 50.8 | 4.9 | 18.9 | 11.6 | 62.5 |
| O=c1c2c(nc(CCc3ccccc3)n1CCc1cccs1)sc1c(O)cccc12 [No. 639] | – | – | – | – | – | – | 18.2 | 24.0 | 22.6 | 39.3 | 33.6 | 76.2 |
| O=c1c2c(nc(Cc3ccccc3)n1CCc1cccs1)sc1c(O)cccc12 [No. 641] | – | – | – | – | – | – | 10.5 | 36.9 | 20.4 | 35.0 | 13.2 | 55.7 |

Source: patent publication US7524853B2 (Solvay Pharmaceuticals B.V., priority 2003, dated 2009)
